Measured values reported in paper PMC10527387, “The Potential Mechanisms behind Loperamide-Induced Cardiac Arrhythmias Associated with Human Abuse and Extreme Overdose” (Biomolecules, 2023).

Key:
Cav1.2 (ICa, ICaL) = target: T1, Cav1.2 (ICa, ICaL) (Homo sapiens, UniProt Q13936); experiment: cell-based
T1 construct: gene CACNA1C

Nav1.5 (INa) = target: T2, Nav1.5 (INa) (Homo sapiens, UniProt Q14524); experiment: cell-based
T2 construct: gene SCN5A
T2 sequence (Q14524 whole entry): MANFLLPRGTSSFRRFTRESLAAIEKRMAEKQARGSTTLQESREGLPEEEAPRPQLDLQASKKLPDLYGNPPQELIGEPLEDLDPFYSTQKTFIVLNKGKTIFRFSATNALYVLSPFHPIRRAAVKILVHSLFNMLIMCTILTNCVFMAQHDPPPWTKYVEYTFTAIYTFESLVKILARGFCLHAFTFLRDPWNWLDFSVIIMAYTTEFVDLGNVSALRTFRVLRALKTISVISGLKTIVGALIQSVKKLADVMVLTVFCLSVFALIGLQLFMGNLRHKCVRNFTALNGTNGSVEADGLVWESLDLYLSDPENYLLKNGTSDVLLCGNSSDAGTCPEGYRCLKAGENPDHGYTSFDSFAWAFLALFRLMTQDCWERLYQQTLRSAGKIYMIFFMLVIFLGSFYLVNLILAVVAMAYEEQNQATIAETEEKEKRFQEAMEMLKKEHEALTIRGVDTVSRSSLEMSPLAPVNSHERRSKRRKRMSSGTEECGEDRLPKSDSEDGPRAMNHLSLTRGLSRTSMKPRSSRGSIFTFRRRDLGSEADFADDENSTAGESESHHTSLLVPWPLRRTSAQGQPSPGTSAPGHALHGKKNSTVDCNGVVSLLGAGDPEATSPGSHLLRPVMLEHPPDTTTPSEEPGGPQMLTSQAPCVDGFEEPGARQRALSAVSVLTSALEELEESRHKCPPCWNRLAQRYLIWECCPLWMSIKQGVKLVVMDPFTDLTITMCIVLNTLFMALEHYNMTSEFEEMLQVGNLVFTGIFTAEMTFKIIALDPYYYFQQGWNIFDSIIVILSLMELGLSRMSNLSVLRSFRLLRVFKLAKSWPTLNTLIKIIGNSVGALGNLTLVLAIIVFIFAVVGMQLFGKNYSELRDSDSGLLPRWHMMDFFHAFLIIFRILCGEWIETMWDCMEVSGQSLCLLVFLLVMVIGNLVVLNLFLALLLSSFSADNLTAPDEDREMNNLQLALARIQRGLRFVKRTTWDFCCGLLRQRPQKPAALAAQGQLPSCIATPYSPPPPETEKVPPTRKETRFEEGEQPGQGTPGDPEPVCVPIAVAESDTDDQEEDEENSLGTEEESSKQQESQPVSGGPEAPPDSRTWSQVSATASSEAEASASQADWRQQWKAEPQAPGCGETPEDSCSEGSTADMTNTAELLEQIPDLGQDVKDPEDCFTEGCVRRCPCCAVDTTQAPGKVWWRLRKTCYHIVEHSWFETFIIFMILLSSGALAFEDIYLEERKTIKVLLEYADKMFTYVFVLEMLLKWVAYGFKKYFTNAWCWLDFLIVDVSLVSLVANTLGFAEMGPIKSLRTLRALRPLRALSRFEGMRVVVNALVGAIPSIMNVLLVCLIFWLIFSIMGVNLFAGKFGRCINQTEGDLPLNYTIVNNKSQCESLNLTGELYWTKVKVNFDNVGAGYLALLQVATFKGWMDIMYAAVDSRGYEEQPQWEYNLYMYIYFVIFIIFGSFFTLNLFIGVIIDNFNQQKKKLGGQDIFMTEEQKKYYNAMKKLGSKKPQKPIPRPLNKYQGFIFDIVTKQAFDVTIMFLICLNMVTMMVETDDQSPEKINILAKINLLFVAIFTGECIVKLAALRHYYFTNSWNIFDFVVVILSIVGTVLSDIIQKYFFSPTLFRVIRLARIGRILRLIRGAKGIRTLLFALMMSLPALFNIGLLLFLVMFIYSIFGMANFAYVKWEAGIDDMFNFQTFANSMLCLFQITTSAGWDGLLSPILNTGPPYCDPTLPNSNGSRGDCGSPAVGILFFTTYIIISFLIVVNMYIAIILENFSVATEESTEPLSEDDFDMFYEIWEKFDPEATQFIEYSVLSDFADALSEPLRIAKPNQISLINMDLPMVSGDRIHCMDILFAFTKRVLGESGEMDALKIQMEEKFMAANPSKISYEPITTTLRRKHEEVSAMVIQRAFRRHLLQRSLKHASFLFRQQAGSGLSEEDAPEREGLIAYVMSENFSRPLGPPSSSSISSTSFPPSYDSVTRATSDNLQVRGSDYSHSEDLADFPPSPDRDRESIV

T1 sequence (Q13936 whole entry): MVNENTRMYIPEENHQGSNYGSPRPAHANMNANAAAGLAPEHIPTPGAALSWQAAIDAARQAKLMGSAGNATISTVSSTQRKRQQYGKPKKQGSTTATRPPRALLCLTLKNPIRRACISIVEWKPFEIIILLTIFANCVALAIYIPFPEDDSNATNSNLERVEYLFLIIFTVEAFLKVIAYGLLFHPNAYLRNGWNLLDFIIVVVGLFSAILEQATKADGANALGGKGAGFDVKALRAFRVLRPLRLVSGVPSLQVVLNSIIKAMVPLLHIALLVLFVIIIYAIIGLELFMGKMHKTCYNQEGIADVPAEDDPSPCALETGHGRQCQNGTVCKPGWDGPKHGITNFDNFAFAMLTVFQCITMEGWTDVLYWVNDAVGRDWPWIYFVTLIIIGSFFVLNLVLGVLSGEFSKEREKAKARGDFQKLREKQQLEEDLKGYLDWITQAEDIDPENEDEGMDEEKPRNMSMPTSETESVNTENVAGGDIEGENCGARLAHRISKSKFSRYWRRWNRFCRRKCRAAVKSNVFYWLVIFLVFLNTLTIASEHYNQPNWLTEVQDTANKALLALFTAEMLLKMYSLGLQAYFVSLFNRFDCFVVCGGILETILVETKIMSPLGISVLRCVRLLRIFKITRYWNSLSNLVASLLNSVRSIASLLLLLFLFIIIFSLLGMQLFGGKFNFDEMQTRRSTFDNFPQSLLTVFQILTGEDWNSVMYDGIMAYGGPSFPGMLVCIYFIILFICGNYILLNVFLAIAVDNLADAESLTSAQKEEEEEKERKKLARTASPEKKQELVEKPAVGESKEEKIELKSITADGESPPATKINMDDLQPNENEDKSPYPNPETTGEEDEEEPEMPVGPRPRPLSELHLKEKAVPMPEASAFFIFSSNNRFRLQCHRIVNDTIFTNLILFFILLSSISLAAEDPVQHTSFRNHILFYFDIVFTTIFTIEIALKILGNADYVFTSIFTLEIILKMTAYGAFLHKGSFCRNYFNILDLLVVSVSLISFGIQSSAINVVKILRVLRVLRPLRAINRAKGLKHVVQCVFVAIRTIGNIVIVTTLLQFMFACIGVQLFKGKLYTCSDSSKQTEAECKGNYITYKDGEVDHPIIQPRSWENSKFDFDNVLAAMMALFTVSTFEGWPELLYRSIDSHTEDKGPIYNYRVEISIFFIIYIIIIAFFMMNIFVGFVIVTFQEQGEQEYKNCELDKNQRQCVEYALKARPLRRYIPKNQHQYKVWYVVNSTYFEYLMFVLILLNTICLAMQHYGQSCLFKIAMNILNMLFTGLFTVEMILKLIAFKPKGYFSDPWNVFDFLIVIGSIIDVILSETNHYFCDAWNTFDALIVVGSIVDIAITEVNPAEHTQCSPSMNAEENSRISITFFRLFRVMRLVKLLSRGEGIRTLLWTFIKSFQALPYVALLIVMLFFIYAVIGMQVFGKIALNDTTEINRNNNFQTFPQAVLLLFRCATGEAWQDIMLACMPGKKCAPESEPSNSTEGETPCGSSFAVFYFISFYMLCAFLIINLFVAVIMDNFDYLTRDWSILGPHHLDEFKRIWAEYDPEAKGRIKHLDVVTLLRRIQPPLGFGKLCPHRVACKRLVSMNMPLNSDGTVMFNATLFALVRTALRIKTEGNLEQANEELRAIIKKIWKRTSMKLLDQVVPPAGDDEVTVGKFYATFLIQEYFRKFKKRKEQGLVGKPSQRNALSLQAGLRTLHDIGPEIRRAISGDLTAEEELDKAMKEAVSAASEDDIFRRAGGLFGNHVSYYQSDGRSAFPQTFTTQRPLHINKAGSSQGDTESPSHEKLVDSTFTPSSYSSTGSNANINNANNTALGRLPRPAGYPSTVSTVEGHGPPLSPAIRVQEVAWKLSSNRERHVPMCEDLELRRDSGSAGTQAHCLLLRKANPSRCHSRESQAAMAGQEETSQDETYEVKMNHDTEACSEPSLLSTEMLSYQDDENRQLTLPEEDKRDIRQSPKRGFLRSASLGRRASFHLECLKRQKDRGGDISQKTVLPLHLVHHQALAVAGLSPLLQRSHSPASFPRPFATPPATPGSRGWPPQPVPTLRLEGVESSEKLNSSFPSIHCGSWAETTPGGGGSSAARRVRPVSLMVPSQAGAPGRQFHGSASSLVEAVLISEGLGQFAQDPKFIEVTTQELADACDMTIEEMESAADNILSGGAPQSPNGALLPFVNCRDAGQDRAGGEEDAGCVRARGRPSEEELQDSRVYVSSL

With `CN(C)C(=O)C(CCN1CCC(O)(c2ccc(Cl)cc2)CC1)(c1ccccc1)c1ccccc1` [Loperamide] as the compound, how does the IC50 (Cav1.2 (ICa, ICaL)) read?
Its IC50 is 4.09 µM.

What about the IC50 (Nav1.5 (INa)) of the same compound?
The IC50 was 0.526 µM.
